Legend:
RAW 264.7 macrophages [1] = assay: subcellular localization by confocal laser scanning microscopy; type: cell-based; conditions: for ratio of cytosolic (ER-associated) to nuclear fluorescence: 10 μM, 4 h, living RAW 264.7 macrophages
Excerpt: The pro-fluorophore Compounds 1-8 can cause fluorescence in living cells upon reacting with peroxynitrite. The ability of ER-targeted sensors to detect endogenous peroxynitrite during phagocytosis was further investigated by confocal laser scanning microscopy. […] The left panels of FIGS. 7A-7B show the DIC micrographs and the right panels show the confocal laser scanning micrographs. […] When the cells were additionally treated with DNP-modified amino tentagel beads (10 micron) bound to anti-DNP IgG, cellular green fluorescence is observed and localized to the endoplasmic reticulum. In FIG. 7B, the white arrows point at phagocytosed beads. The scale bar in FIG. 7B is 25 microns. The right panel of FIG. 7A is relatively blank (white instead of black), and then fluorescence is seen in the right panel of FIG. 7B, thereby showing that there is localization to the ER by the compounds of the present invention.
After correcting for differences in brightness, this interpretation was further supported by analysis of cells treated with Compounds 1-8 by flow cytometry.
Analysis of Subcellular Localization.
RAW264.7 macrophages were scraped to passage and diluted to 300,000 cells/mL in complete medium. These cells were plated in an ibiTreat-coated 8-well μ-Slide (ibidi, 300 μL of media per well) and incubated at 37° C. overnight. The next day, the wells were washed once with complete media before treatment with fluorescent probes. Fluorescent sensors in DMSO stock solutions were diluted into complete media and added to cells. ER-Tracker Blue-White DPX (ThermoFisher Scientific) was diluted in DMSO to 100 μM followed by 1:1000 dilution with complete media. Labeled tentagel beads were added to cells at 200,000 beads/mL. Cells were incubated for 4 h at 37° C. followed by imaging by confocal microscopy (without washing). Phagocytosed beads were identified by morphology such as compression of the nucleus around the bead and adjacent fluorescence of ER membranes. […] To quantify the ratio of cytosolic to nuclear fluorescence (FIG. 8), Leica LAS X 2.0.1 software was used to define regions of interest (ROI) within the cytosol, nucleus, and cell-free regions. Mean fluorescence per pixel was calculated using Leica LAS X 2.0.1 software and plotted with SD (N=20). ROI from cell-free regions were used to subtract background fluorescence for comparison.

[2] = photophysical properties: quantum yields relative to rhodamine 6G in n-octanol, molar extinction coefficients in DMSO; type: physicochemical
Excerpt: Optical spectroscopic properties of the pro-fluorophore Compound 3, as a representative probe, and the rhodol product (Compound 9), in n-octanol as a mimic of ER membranes, are shown in FIG. 2.
The fluorescence emission of Compounds 1-8 was quenched by up to 1800-fold (for Compound 3, Φ=0.0004) compared to Compound 9 (Φ=0.72). However, the brightness of these sensors, calculated as the product of their measured molar extinction coefficients and quantum yields, varied by up to 30-fold (See FIGS. 2A and 2B).

RAW 264.7 macrophages [3] = assay: detection of peroxynitrite resulting from phagocytosis by flow cytometry; type: cell-based; conditions: for response of cellular fluorescence to SIN-1: SIN-1 50 μM, HPF 10 μM in HBSS, Fl-B 50 μM in DMEM; for cellular association (cellular fluorescence per sensor brightness): FIG. 8C
Excerpt: The ability of the pro-fluorophore Compounds 1-8 to generate cellular fluorescence was studied. The protocol included treating living RAW 264.7 macrophages with pro-fluorophore Compounds 1-8 and quantified cellular fluorescence by flow cytometry (FIGS. 6A-6B). To trigger phagocytosis and production of endogenous peroxynitrite, these cells were additionally treated with chemically-modified amino-tentagel beads. These beads were either covalently derivatized with the fluorophore Pacific Blue, to provide a less immunostimulatory control, or covalently conjugated with DNP and non-covalently bound to anti-DNP IgG, to promote bead phagocytosis as shown in FIG. 9. To provide a spectrally orthogonal marker, lysine residues of the antibody were conjugated to PB to allow labeled beads to be distinguished from cells by flow cytometry. […] Cells were treated (4 h) with sensor Compounds 1-8 (10 μM) and 10-micron amino-tentagel beads modified either with Pacific Blue-SE (Beads-PB) or 2,4-DNP-X-SE. To the DNP-modified beads was additionally added rabbit anti-DNP IgG (Beads/IgG), conjugated to Pacific Blue via lysines, to stimulate phagocytosis.
The ER-targeting pro-fluorophores were compared with non-ER-targeted sensors of peroxynitrite: hydroxyphenyl fluorescein (HPF) and fluorescein boronate (Fl-B). Since the fluorescence of HPF can be affected by serum proteins, cells were treated with this compound in Hank's balanced salt solution (HBSS). […] In FIG. 6B, the cells were treated with Compound 3 in DMEM media or HBSS and compared with treatment with hydroxyphenyl fluorescein (HPF, 10 μM in HBSS) and fluorescein boronate (Fl-B, 50 μM in DMEM). [SIN-1]=50 μM. [FeTMPyP]=50 μM.
Detection of Peroxynitrite Resulting from Phagocytosis by Flow Cytometry.
RAW264.7 macrophages were seeded on a non-treated 96-well plate (USA Scientific) in complete media (40,000 cells, 200 μL per well) 16 h prior to treatment. These cells adhere to treated plastic very strongly, and the use of non-treated plates was required for subsequent release and analysis of cells by flow cytometry. Fluorescent sensors were diluted from DMSO stock solutions into complete media (final concentration of probe=10 μM, 0.5% DMSO). Fluorescein and Compound 3 were added to Hank's Balanced Salt Solution (HBSS, Corning, pH 7.4). Labeled tentagel beads were added to this complete media or HBSS (200,000 beads/mL). The original media was carefully removed from all wells by aspiration and replaced with the treatment media containing beads and sensors (200 μL per well) in triplicate. After incubation of treated cells at 37° C. for 4 h, aqueous propidium iodide (PI, 20 μL, 30 μM, Thermo Fisher Scientific) was added to each well (final concentration of PI=3 μM). A p200 multichannel pipette was used to release the cells from the plate via sheer force. Cellular fluorescence was analyzed by flow cytometry. Viability was determined by gating based on staining of cells with compromised membranes with PI. Tentagel beads take up significant amounts of PI, making them brighter than cells at 690/50 nm. Additionally, labeling of tentagel beads with Pacific Blue makes them brighter than cells when excited at 405 nm, and additional excitation at this wavelength was used to assure that all beads were excluded from gating of live cells. Median values of fluorescence of living cells in the FITC-A channel (525/40 nm) were compared and plotted.

cells in culture = assay: cytotoxicity in culture (FIG. 5); type: cell-based; conditions: 10 μM, 48 hours in culture
[4] = sensor 50 nM, PBS pH 7.4, 5 min, 23° C.
Protocol: Maximal fluorescence emission was measured by fluorescence spectroscopy after treatment for 5 min at 23° C. (PBS, pH 7.4, 0.1% DMSO).
A normalized DMSO stock solution of Compound 3 in DMSO (50 μM) was diluted 1:1000 with PBS (pH 7.4) to yield a 50 nM solution (0.1% DMSO) in triplicate. RNS and ROS were generated as described below and diluted into the solution in volumes that changed the overall volume by 0.5% or less. These solutions were mixed, incubated at room temperature for 5 min, and transferred to a quartz cell for analysis by fluorescence spectroscopy.
The concentration of peroxynitrite was measured by absorbance spectroscopy (ε=1670 M^−1cm^−1 at 302 nm in aq. NaOH, 0.1 M). To provide stock solutions, peroxynitrite was diluted with NaOH (aq., 0.1 M). These solutions were diluted 1:1000 into solutions of Compound 3 for analysis. […] The concentration of ClO^− was verified by absorbance spectroscopy (ε=350 M^−1cm^−1 at 209 nm) in water.
Hydroxyl radical (.OH) was generated using the Fenton reaction (Jia, X., Chen, Q., Yang, Y., Tang, Y., Wang, R., Xu, Y., Zhu, W., and Qian, X. (2016) FRET-Based Mito-Specific Fluorescent Probe for Ratiometric Detection and Imaging of Endogenous Peroxynitrite: Dyad of Cy3 and Cy5, J. Am. Chem. Soc. 138, 10778-10781). […] The concentration of H2O2 was verified by absorbance spectroscopy (ε=43.6 M^−1cm^−1 at 240 nm) in water. […]

[5] = limit of detection of peroxynitrite by fluorescence spectroscopy; conditions: sensor 50 nM in PBS pH 7.4, 0.1% DMSO, 5 min, 23° C.
Protocol: (PBS, pH 7.4, 0.1% DMSO).
Determination of the Limit of Detection of Peroxynitrite by Compound 3.
The concentration of a stock solution of pure peroxynitrite was measured by absorbance spectroscopy and diluted with aq. NaOH (0.1 M) to provide additional stock solutions. […] The detection limit of Compound 3 was determined based on a reported method (Yu, F., Li, P., Wang, B., and Han, K. (2013) Reversible near-infrared fluorescent probe introducing tellurium to mimetic glutathione peroxidase for monitoring the redox cycles between peroxynitrite and glutathione in vivo, J. Am. Chem. Soc. 135, 7674-7680; Shortreed, M., Kopelman, R., Kuhn, M., and Hoyland, B. (1996) Fluorescent fiber-optic calcium sensor for physiological measurements, Anal. Chem. 68, 1414-1418). The fluorescence emission at 526 nm was normalized between the minimum intensity (0 nM peroxynitrite, Fmin) and the maximum intensity (500 nM peroxynitrite, Fmax) using the following equation: (F−Fmin)/(Fmax−Fmin). […]

[6] = cited from earlier work

With `CNc1cc2oc3cc(=O)c(F)cc-3c(-c3ccccc3C)c2cc1F` [Compound 9] the “accumulation in the ER by co-localization with ER tracker blue-white DPX” value (RAW 264.7 macrophages [1]; data not shown) was “confirmed to accumulate in the ER”, the “time to extensive loss of cellular fluorescence after washing cells once with complete media (efflux)” value (RAW 264.7 macrophages [1]; data not shown) was 10 to 20 min and the “quantum yield Φ” value [2] was 0.72.
For `Cc1cc(N(C)c2cc3oc4cc(=O)c(F)cc-4c(-c4ccccc4C)c3cc2F)ccc1O` [Compound 2], the “ratio of cytosolic (ER-associated) to nuclear fluorescence” value (from here on “ratio of cytosolic (ER-associated)”) (RAW 264.7 macrophages [1]) was 3.7.
In the case of `O=C1OC2(c3ccc(O)cc3Oc3cc(Oc4ccc(O)cc4)ccc32)c2ccccc21` (stereo not drawn) [HPF, hydroxyphenyl fluorescein, reference compound], the “response of cellular fluorescence to SIN-1” value (RAW 264.7 macrophages [3]) is reported as “responded to SIN-1 and could increase cellular fluorescence”.
With `Cc1ccccc1-c1c2cc(F)c(=O)cc-2oc2cc(N(C)c3cc(C)c(O)c(C)c3)c(F)cc12` [Compound 3] the “cytosolic fluorescence after addition of antibody-opsonized beads” value (RAW 264.7 macrophages [1]; 10 μM sensor, tentagel beads/IgG, confocal microscopy) was “dramatic increase in localized cytosolic fluorescence”, the “ratio of cytosolic (ER-associated)” value (RAW 264.7 macrophages [1]) was 6.7 and the “fluorescence enhancement on co-treatment with FeTMPyP” value (RAW 264.7 macrophages [1]; confocal microscopy, data not shown) was “substantially reduced”. The “accumulation in the ER by co-localization with ER tracker blue-white DPX” value (RAW 264.7 macrophages [1]; data not shown) was “confirmed to accumulate in the ER”, the cytotoxicity (cells in culture) was “negligible cytotoxicity” and the “selectivity for peroxynitrite versus perchlorite, hydroxyl radical, superoxide, peroxides, nitric oxide” value [4] was “highly selective for peroxynitrite”. For the same compound, the “decrease of cellular fluorescence on co-treatment with peroxynitrite decomposition catalyst FeTMPyP” value (RAW 264.7 macrophages [3]; IgG-bound beads, FeTMPyP 50 μM) was “over 50%”, the “detection of peroxynitrite upon mild treatment of cells with antibody-opsonized tentagel beads” value (RAW 264.7 macrophages [3]; flow cytometry, FIG. 6B) was “could detect peroxynitrite” and the “concentration in cells relative to Compound 5” value (RAW 264.7 macrophages [3]; flow cytometry, corrected for brightness, identical conditions (FIG. 8C)) was 4 fold. For the same compound, the “change in cellular fluorescence upon addition of IgG-coated beads” value (RAW 264.7 macrophages [3]; sensor 10 μM, 4 h, Beads/IgG, flow cytometry) was 10 fold, the “conversion by SIN-1 to Compound 9, analysis by HPLC” value (HPLC) was “cleanly convert” and the “pseudo-first-order half-time t1/2 of reaction with SIN-1” value (buffer, pH 7.4) was 49 s. The “approximate limit of detection: peroxynitrite giving a 2-fold increase in fluorescence intensity” value [5] was ~40 nM and the “quantum yield Φ” value [2] was 0.0004.
In the case of “fluorescein boronate [Fl-B, reference compound]”, the “response of cellular fluorescence to SIN-1” value (RAW 264.7 macrophages [3]) is reported as “responded to SIN-1 and could increase cellular fluorescence”.
In the case of `O=NOO` [peroxynitrous acid], the pKa [6] is listed as 6.84.
For `Cc1ccccc1-c1c2cc(F)c(=O)cc-2oc2cc(N(C)c3cc(C(C)(C)C)c(O)c(C(C)(C)C)c3)c(F)cc12` [Compound 4], the “cellular association (cellular fluorescence per sensor brightness)” value (RAW 264.7 macrophages [3]; flow cytometry) was “lower cellular association than Compound 2”.
For `Cc1ccccc1-c1c2cc(F)c(=O)cc-2oc2cc(N(C)c3cc(Cl)c(O)c(Cl)c3)c(F)cc12` [Compound 8], the “cellular association (cellular fluorescence per sensor brightness)” value (RAW 264.7 macrophages [3]; flow cytometry) was “lowest cellular association”.
In the case of `COc1cc(N(C)c2cc3oc4cc(=O)c(F)cc-4c(-c4ccccc4C)c3cc2F)ccc1O` [Compound 5], the “ratio of cytosolic (ER-associated)” value (RAW 264.7 macrophages [1]) is reported as 2.6.

Source: US10663471B2, “Fluorescent sensors of peroxynitrite targeted to the endoplasmic reticulum” (The University of Kansas, priority 2018, dated 2020)
